6 compounds from patent US4518413A, “Poly-phosphorodiamide urease inhibitors and urease inhibited urea based fertilizer compositions” (Allied Corporation, priority 1983, dated 1985) can be followed below.

The subject of the assay is soil urease. Kind of assay: Efficacy test: inhibition of urease-catalysed urea hydrolysis in soil (urea remaining after incubation). It counts as biochemical. The settings on record: New York soil (Cazenovia silt loam, pH 7.2); 800 micrograms test compound and 42.8 mg urea per 20 g air-dry soil; incubated at 25° C. for three days; run in triplicate. As to the method:
Efficacy tests were conducted to evaluate the efficacy of certain representative poly-phosphorodiamide compounds as urease inhibitors. The inhibition tests were run in a New York soil (Cazenovia silt loam, pH 7.2). Evaluations (run in triplicate) consisted of applying 800 micrograms of the test compound in 5 mL of water and 42.8 mg of urea in 1 mL of water to 20 g of air-dry soil in a glass bottle. The bottle was capped with perforated aluminum foil and incubated at 25° C. for three days prior to extraction with 100 mL of a 2M KCl solution containing 0.5 mg of phenylmercuric acetate. The extracts were then analyzed for remaining urea using an autoanalyzer. Percent inhibition was calculated as [formula] where A is urea recovered from unincubated sample (urea added to soil and immediately extracted); B is urea recovered from inhibited sample; and C is urea recovered from the control (uninhibited sample).
The term % Inhibition denotes the change of the read-out against control, counted positive when it falls. High values mean strong suppression, low ones little suppression. With `CC1(NP(N)(N)=O)CCC(C(C)(C)NP(N)(N)=O)CC1` (stereo not drawn) [N,N'-Bis-(diaminophosphinyl)-1,8-diamino-p-menthane], the “% Inhibition” value was found to be 84%.

For the compound `CC(C)(c1ccc(OP(N)(N)=O)cc1)c1ccc(OP(N)(N)=O)cc1` [Phosphorodiamidic Acid (1-Methylethylidene)-di-4,1-PhenyleneEster], the “% Inhibition” value was 70%.

With `NP(N)(=O)N1CCN(P(N)(N)=O)CC1` [N,N'Bis-diaminophosphinyl-piperazine, N,N'-Bis-(diaminophosphinyl)piperazine], the “% Inhibition” value was 76%.

Turning to `NP(N)(=O)Oc1ccc(OP(N)(N)=O)cc1` [Phosphorodiamidic Acid 1,4-Phenylene Ester], the “% Inhibition” value stood at 90%.

Turning to `NP(N)(=O)Oc1cccc(OP(N)(N)=O)c1` [Phosphorodiamidic Acid 1,3-Phenylene Ester], the “% Inhibition” value is on record as 81%.

In the case of `NP(N)(=O)NCCCCCCNP(N)(N)=O` [N,N'-Bis-(diaminophosphinyl)-1,6-diaminohexane], the “% Inhibition” value was found to be 86%.
